The text below walks through data of patent publication US12504425B2, “Blood vessel model” (FUJIFILM CORPORATION, priority 2017, dated 2025).

Data set [1] deals with layer of rat vascular endothelial cells and layer of rat smooth muscle cells on porous membrane. As to the kind of experiment: FITC-Dextran permeability test of cell-layer-affixed blood vessel model after drug exposure. The class given is cell-based. The settings on record: drug 500 ng/ml, 0.7 μL/min, one day, upper microchannel, imaged two minutes after running FITC-Dextran. As for the experimental part:
The cells employed in example 3 and comparative example 3 were the same as that employed in example 2 and comparative example 2. To form the cell layers, the lower microchannel was initially seeded with 100 μL of a cell suspension of rat smooth muscle cells having a cell concentration of 3×10^6 cells/ml. After a day of cultivation, the upper microchannel was seeded with 100 μL of a cell suspension of rat vascular endothelial cells having a cell concentration of 1×10^6 cells/ml and cultivated for six hours. Then, a respective culture medium (rat EC medium/SMC medium) was run through each channel with a rate of fluid delivery of 0.7 μL/min using a pump. After two days of cultivation, the cell-layer-affixed blood vessel models of example 3 and comparative example 3 were obtained. […]
Two minutes after running the FITC-Dextran through the channels, an inverted microscope (product name Eclipse Ts2, made by Nikon) was used to image fluorescence in the microchannels. […]
After drug exposure, a FITC-Dextran permeability test was performed using the same method as the FITC-Dextran permeability test for the cell-layer-affixed blood vessel models described above. […] In the cell-layer-affixed blood vessel model of comparative example 3, the fluorescence observed in the lower microchannel was minimal. […]

The test system is the same in data set [2]. The data set is described as follows: fluorescent bead permeability test of cell-layer-affixed blood vessel model after drug exposure. The class given is cell-based. The settings on record: drug 50 μg/ml, 0.7 μL/min, one day, both microchannels, 4 μm beads 1.81×10^6 beads/ml in upper microchannel. As for the experimental part: In example 2 and comparative example 2, Rat Arterial Endothelial Cells produced by Angio-Proteomie were employed for the rat vascular endothelial cells, and Rat Aortic Smooth Muscle Cells produced by Lonza were employed for the rat smooth muscle cells. The lower microchannel was initially seeded with 100 μL of a cell suspension of rat smooth muscle cells having a cell concentration of 3×10^6 cells/ml. After a day of cultivation, the upper microchannel was seeded with 100 μL of a cell suspension of rat vascular endothelial cells having a cell concentration of 3×10^6 cells/ml. After two days of cultivation, the cell-layer-affixed blood vessel models of example 2 and comparative example 2 were obtained.
A culture medium dilution containing fluorescent beads at a concentration of 1.81×10^6 beads/ml for a tracer was run through the upper microchannel of the cell-layer-affixed blood vessel models produced in example 2 and comparative example 2, and a culture medium not containing fluorescent beads was run through the lower microchannel. […]

Turning to `Oc1ccc(C2CNCCc3c2cc(O)c(O)c3Cl)cc1` (stereo not shown) [fenoldopam], the “FITC-Dextran fluorescence observed in the lower microchannel” value in data set [1] (blood vessel model of comparative example 3 (track-etched porous membrane)) is recorded as “minimal”. Further, the “FITC-Dextran fluorescence observed in the microchannels” value in data set [1] (blood vessel model of example 3 (honeycomb porous membrane)) is listed as “fluorescence was observed over a wide area, including in the lower microchannel”.
For the compound cytochalasin, the “number of fluorescent beads inside the lower microchannel” value was 6.7×10^3 beads/ml in data set [2] (blood vessel model of comparative example 2 (track-etched porous membrane)) and 1.7×10^5 beads/ml in data set [2] (blood vessel model of example 2 (honeycomb porous membrane)).
